Laboratory results published in patent US9353051B2, “Antiviral drugs for treatment or prevention of dengue infection” (Siga Technologies Inc., priority 2007, dated 2016).
Like-named read-outs stand apart in the source and are kept apart here.

Tested on: Dengue-2 (Strain New Guinea C)
Test: viral yield assay against Dengue-2 in Vero cells
Type: cell-based
Settings: Dengue virus, Vero cells; for EC90: read-out: EC90 Yield Den-2
Description: Compounds that were active in the primary screen were also tested for activity in viral yield assays. […] Vero cells in 12-well plates were infected with dengue-2 virus at a multiplicity of infection (MOI) of 0.1, treated with compound (or DMSO as a control), incubated at 37° C., harvested 48 hours post infection and titered on Vero cells as described above. The EC50 was calculated through ExcelFit. Those compounds with activity below 1 μM are indicated with “A”, those with activity between 1 and 10 μM are indicated with “B”, those with activity between 10 and 25 μM with “C”, and those with activity above 25 μM are indicated with “D”.

[1] = MOI 0.1, harvested 48 hours post infection, read-out: Activity (anti-dengue 2 viral activity, EC50)
[2] = viral yield assay, read-out: EC50 Yield Den-2

SMILES | EC50 [1] [µM] | EC50 [2] [µM] | EC90 (viral yield assay) [µM]
CCN(CC)S(=O)(=O)c1ccc(NC(=O)Cn2cnc3cc(NC)c([N+](=O)[O-])cc3c2=O)cc1 [Compound 60, N-(4-Diethylsulfamoyl-phenyl)-2-(7-methylamino-6-nitro-4-oxo-4H-quinazolin-3-yl)-acetamide] | > 25 | – | –
CCN(CC)S(=O)(=O)c1ccc(NC(=O)Cn2cnc3c(oc4ccccc43)c2=O)cc1 [Compound 24, N-(4-Diethylsulfamoyl-phenyl)-2-(4-oxo-4H-benzo [4,5]furo[3,2-d]pyrimidin-3-yl)-acetamide] | 10 to 25 | – | –
O=C(Cn1cnc2ccccc2c1=O)Nc1ccc(S(=O)(=O)N2CCCC2)cc1 [Compound 31, 2-(4-Oxo-4H-quinazolin-3-yl)-N-[4-(pyrrolidine-1-sulfonyl)-phenyl]-acetamide] | > 25 | – | –
CN(C)S(=O)(=O)c1cccc(COC(=O)Cn2cnc3ccccc3c2=O)c1 [Compound 128, (4-Oxo-4H-quinazolin-3-yl)-acetic acid 3-dimethylsulfamoyl-benzyl ester] | > 25 | – | –
Cc1ccc(S(=O)(=O)Nc2ccc3ncn(Cc4ccccc4)c(=O)c3c2)cc1 [Compound 99, N-(3-Benzyl-4-oxo-3,4-dihydro-quinazolin-6-yl)-4-methyl-benzenesulfonamide] | > 25 | – | –
COc1ccc(S(=O)(=O)N(C)C)cc1NC(=O)Cn1cnc2cc([N+](=O)[O-])ccc2c1=O [Compound 126, N-(5-Dimethylsulfamoyl-2-methoxy-phenyl)-2-(7-nitro-4-oxo-4H-quinazolin-3-yl)-acetamide] | > 25 | – | –
Cn1c(=O)c2ccccc2n(CC(=O)NCCc2ccc(S(N)(=O)=O)cc2)c1=O [Compound 102, 2-(3-Methyl-2,4-dioxo-3,4-dihydro-2H-quinazolin-1-yl)-N-[2-(4-sulfamoyl-phenyl)-ethyl]-acetamide] | > 25 | – | –
CCCCN(C)S(=O)(=O)c1ccc(NC(=O)Cn2cnc3ccccc3c2=O)cc1 [Compound 35, N-[4-(Butyl-methyl-sulfamoyl)-phenyl]-2-(4-oxo-4H-quinazolin-3-yl)-acetamide] | > 25 | – | –
CN(c1ccccc1)S(=O)(=O)c1cccc(NC(=O)Cn2cnc3ccccc3c2=O)c1 [Compound 122, N-[3-(Methyl-phenyl-sulfamoyl)-phenyl]-2-(4-oxo-4H-quinazolin-3-yl)-acetamide] | > 25 | – | –
CCN(CC)S(=O)(=O)c1ccc(NC(=O)Cn2cnc3sc(C)c(C)c3c2=O)cc1 [Compound 10, N-(4-Diethylsulfamoyl-phenyl)-2-(5,6-dimethyl-4-oxo-4H-thieno[2,3-d]pyrimidin-3-yl)-acetamide] | 1 to 10 | 1.25 | > 50
CC1CCCCN1S(=O)(=O)c1ccc(NC(=O)Cn2cnc3ccccc3c2=O)cc1 (centres unmarked) [Compound 37, N-[4-(2-Methyl-piperidine-1-sulfonyl)-phenyl]-2-(4-oxo-4H-quinazolin-3-yl)-acetamide] | > 25 | – | –
CC1CCCC(C)N1S(=O)(=O)c1ccc(NC(=O)Cn2cnc3ccccc3c2=O)cc1 (centres unmarked) [Compound 18, N-[4-(2,6-Dimethyl-piperidine-1-sulfonyl)-phenyl]-2-(4-oxo-4H-quinazolin-3-yl)-acetamide] | 1 to 10 | – | –
NS(=O)(=O)c1ccc(NC(=O)Cn2nc(C(=O)O)c3ccccc3c2=O)cc1 [Compound 108, 4-Oxo-3-[(4-sulfamoyl-phenylcarbamoyl)-methyl]-3,4-dihydro-phthalazine-1-carboxylic acid] | > 25 | – | –
O=C(Cn1cnc2ccc([N+](=O)[O-])cc2c1=O)Nc1ccc(S(=O)(=O)N2CCCCC2)cc1 [Compound 134, 2-(6-Nitro-4-oxo-4H-quinazolin-3-yl)-N-[4-(piperidine-1-sulfonyl)-phenyl]-acetamide] | > 25 | – | –
O=C(Cn1nnc2ccccc2c1=O)Nc1ccc(S(=O)(=O)N2CCOCC2)cc1 [Compound 82, N-[4-(Morpholine-4-sulfonyl)-phenyl]-2-(4-oxo-4H-benzo[d][1,2,3]triazin-3-yl)-acetamide] | > 25 | – | –
CCN(CC)S(=O)(=O)c1cc(NC(=O)Cn2cnc3ccccc3c2=O)ccc1C [Compound 105, N-(3-Diethylsulfamoyl-4-methyl-phenyl)-2-(4-oxo-4H-quinazolin-3-yl)-acetamide] | > 25 | – | –
CCN(CC)S(=O)(=O)c1ccc(OC)c(NC(=O)CCn2nnc3ccccc3c2=O)c1 [Compound 27, N-(5-Diethylsulfamoyl-2-methoxy-phenyl)-3-(4-oxo-4H-benzo[d][1,2,3]triazin-3-yl)-propionamide] | 10 to 25 | – | –
O=C(Cn1nnc2ccccc2c1=O)Nc1ccc(S(=O)(=O)N2CCCCC2)cc1 [Compound 87, 2-(4-Oxo-4H-benzo[d][1,2,3]triazin-3-yl)-N-[4-(piperidine-1-sulfonyl)-phenyl]-acetamide] | > 25 | – | –
NS(=O)(=O)c1cccc(NC(=O)Cn2cnc3ccccc3c2=O)c1 [Compound 106, 2-(4-Oxo-4H-quinazolin-3-yl)-N-(3-sulfamoyl-phenyl)-acetamide] | > 25 | – | –

SMILES | EC50 [1] [µM] | EC50 [2] [µM] | EC90 (viral yield assay) [µM]
CCN(CC(=O)NCCc1ccc(S(N)(=O)=O)cc1)Cc1nc2ccccc2c(=O)[nH]1 [Compound 114, 2-[Ethyl-(4-oxo-3,4-dihydro-quinazolin-2-ylmethyl)-arnino]-N-[2-(4-sulfamoyl-phenyl)-ethyl]-acetamide] | > 25 | – | –
O=C(Cn1cnc2ccc(Cl)cc2c1=O)Nc1ccc(S(=O)(=O)N2CCCCCC2)cc1 [Compound 138, N-[4-(Azepane-1-sulfonyl)-phenyl]-2-(6-chloro-4-oxo-4H-quinazolin-3-yl)-acetamide] | > 25 | – | –
CCN(CC)S(=O)(=O)c1ccc(NC(=O)Cn2cnc3cc(-c4ccc(OC)cc4)sc3c2=O)cc1 [Compound 61, N-(4-Diethylsulfamoyl-phenyl)-2-[6-(4-methoxy-phenyl)-4-oxo-4H-thieno[3,2-d]pyrimidin-3-yl]-acetamide] | > 25 | – | –
COc1ccc(NC(=O)Cn2cnc3ccccc3c2=O)cc1S(N)(=O)=O [Compound 136, N-(4-Methoxy-3-sulfamoyl-phenyl)-2-(4-oxo-4H-quinazolin-3-yl)-acetamide] | > 25 | – | –
CN1CCN(S(=O)(=O)c2ccc(NC(=O)Cn3cnc4ccccc4c3=O)cc2)CC1 [Compound 45, N-[4-(4-Methyl-piperazine-1-sulfonyl)-phenyl]-2-(4-oxo-4H-quinazolin-3-yl)-acetamide] | > 25 | – | –
O=C(Cn1nnc2ccccc2c1=O)Nc1ccc(S(=O)(=O)N2CCCC2)cc1 [Compound 113, 2-(4-Oxo-4H-benzo[d][1,2,3]triazin-3-yl)-N-[4-(pyrrolidine-1-sulfonyl)-phenyl]-acetamide] | > 25 | – | –
CCN(CC)S(=O)(=O)c1ccc2c(c1)CCN2C(=O)Cn1cnc2ccccc2c1=O [Compound 17, 1-[2-(4-Oxo-4H-quinazolin-3-yl)-acetyl]-2,3-dihydro-1H-indole-5-sulfonic acid diethylamide] | 1 to 10 | 5.1 | 12.1
O=C(Cn1cnc2ccccc2c1=O)Nc1cccc(S(=O)(=O)N2CCCC2)c1 [Compound 121, 2-(4-Oxo-4H-quinazolin-3-yl)-N-[3-(pyrrolidine-1-sulfonyl)-phenyl]-acetamide] | > 25 | – | –
CCN(CC(=O)Nc1ccc(S(N)(=O)=O)cc1)Cc1nc2cc(OC)c(OC)cc2c(=O)[nH]1 [Compound 120, 2-[(6,7-Dimethoxy-4-oxo-3,4-dihydro-quinazolin-2-ylmethyl)-ethyl-amino]-N-(4-sulfamoyl-phenyl)-acetamide] | > 25 | – | –
CCN(CC)S(=O)(=O)c1ccc(OC(C)C)c(NC(=O)CCn2nnc3ccccc3c2=O)c1 [Compound 25, N-(5-Diethylsulfamoyl-2-isopropoxy-phenyl)-3-(4-oxo-4H-benzo[d][1,2,3]triazin-3-yl)-propionamide] | 10 to 25 | – | –
CCN(CC)S(=O)(=O)c1ccc2c(c1)CCCN2C(=O)Cn1cnc2c(C)cccc2c1=O [Compound 97, 1-[2-(8-Methyl-4-oxo-4H-quinazolin-3-yl)-acetyl]-1,2,3,4-tetrahydro-quinoline-6-sulfonic acid diethylamide] | > 25 | – | –
O=C(Cn1cnc2cc([N+](=O)[O-])ccc2c1=O)Nc1ccc(S(=O)(=O)N2CCCC2)cc1 [Compound 123, 2-(7-Nitro-4-oxo-4H-quinazolin-3-yl)-N-[4-(pyrrolidine-1-sulfonyl)-phenyl]-acetamide] | > 25 | – | –
CC(=O)NCCc1ccc(S(=O)(=O)Nc2ccc3ncn(C)c(=O)c3c2)cc1 [Compound 103, N-{2-[4-(3-Methyl-4-oxo-3,4-dihydro-quinazolin-6-ylsulfamoyl)-phenyl]-ethyl}-acetamide] | > 25 | – | –
O=C(Cn1cnc2ccccc2c1=O)Nc1ccc(S(=O)(=O)NCc2ccco2)cc1 [Compound 41, N-{4-[(Furan-2-ylmethyl)-sulfamoyl]-phenyl}-2-(4-oxo-4H-quinazolin-3-yl)-acetamide] | > 25 | – | –
CCN(CC(=O)Nc1ccc(S(=O)(=O)N(CC)CC)cc1)Cc1nc2ccccc2c(=O)[nH]1 [Compound 29, N-(4-Diethylsulfamoyl-phenyl)-2-[ethyl-(4-oxo-3,4-dihydro-quinazolin-2-ylmethyl)-amino]-acetamide] | 10 to 25 | – | –
CC1CCN(S(=O)(=O)c2ccc(NC(=O)Cn3cnc4ccccc4c3=O)cc2)CC1 [Compound 47, N-[4-(4-Methyl-piperidine-1-sulfonyl)-phenyl]-2-(4-oxo-4H-quinazolin-3-yl)-acetamide] | > 25 | – | –
CC(C)N(C)S(=O)(=O)c1ccc(NC(=O)Cn2cnc3ccccc3c2=O)cc1 [Compound 42, N-[4-(Isopropyl-methyl-sulfamoyl)-phenyl]-2-(4-oxo-4H-quinazolin-3-yl)-acetamide] | > 25 | – | –
CC(C)NS(=O)(=O)c1ccc(NC(=O)C(C)N(C)Cc2nc3ccccc3c(=O)[nH]2)cc1 (centres unmarked) [Compound 133, N-(4-Isopropylsulfamoyl-phenyl)-2-[methyl-(4-oxo-3,4-dihydro-quinazolin-2-ylmethyl)-amino]-propionamide] | > 25 | – | –
